Laboratory results: patent US10597388B2, “Pyridazinone herbicides” (FMC CORPORATION, priority 2014, dated 2020)

Tests used:
Assay in all cases: Test C greenhouse herbicide test, pre- and postemergence
Assay type in all cases: in vivo
[1] = test system: morningglory (Ipomoea coccinea)
Outline: (§1)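 Preemergence: seeds sown in a loam soil–sand blend and sprayed with test chemicals in a non-phytotoxic solvent mixture containing surfactant. Postemergence: plants grown in peat-based medium and treated at 2 to 18 cm (1- to 4-leaf stage). After 13 to 15 d in a greenhouse, injury was visually rated 0–100 against controls.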

[2] = test system: foxtail, giant (giant foxtail, Setaria faberii)
Outline: as §1

[3] = test system: ragweed (common ragweed, Ambrosia elatior)
Outline: as §1

[4] = test system: barnyardgrass (Echinochloa crus-galli)
Outline: as §1

[5] = test system: nutsedge, yellow (yellow nutsedge, Cyperus esculentus)
Outline: as §1

[6] = test system: blackgrass (Alopecurus myosuroides)
Outline: as §1

[7] = test system: ryegrass, Italian (Italian ryegrass, Lolium multiflorum)
Outline: as §1

[8] = test system: velvetleaf (Abutilon theophrasti)
Outline: as §1

[9] = test system: johnsongrass (Sorghum halepense)
Outline: as §1

[10] = test system: galium (catchweed bedstraw, Galium aparine)
Outline: as §1

[11] = test system: waterhemp (common waterhemp, Amaranthus rudis)
Outline: as §1

[12] = test system: soybean (Glycine max)
Outline: as §1

[13] = test system: corn (Zea mays)
Outline: as §1

[14] = test system: pigweed (Amaranthus retroflexus)
Outline: as §1

[15] = test system: wheat (winter wheat, Triticum aestivum)
Outline: as §1

[16] = test system: lambsquarters (Chenopodium album)
Outline: as §1

[17] = Postemergence, 31 g ai/ha, 0 to 100 scale (0 no effect, 100 complete control)
[18] = Postemergence, 125 g ai/ha, scale 0 to 100, 0 is no effect, 100 is complete control
[19] = Postemergence, 250 g ai/ha, scale 0 to 100, 0 no effect, 100 complete control, 13 to 15 d
[20] = Preemergence, 31 g ai/ha, scale 0 to 100, 0 is no effect, 100 is complete control
[21] = Preemergence, 62 g ai/ha, scale 0 to 100, 0 is no effect, 100 is complete control
[22] = Preemergence, 125 g ai/ha, scale 0 to 100, 0 is no effect, 100 is complete control
[23] = Preemergence, 250 g ai/ha, scale 0 to 100 (0 no effect, 100 complete control)
[24] = postemergence, 62 g ai/ha, scale 0 to 100, 0 no effect, 100 complete control

CCOC(=O)Oc1c(C)nn(C)c(=O)c1-c1c(C)ccc2ccccc12 [Compound 73]
80: Nutsedge, Yellow plant response rating [5, 17] | Plant response rating, Nutsedge, Yellow [5, 18] | Nutsedge, Yellow plant response rating [5, 24] | Plant response rating, Blackgrass [6, 21] | Plant response rating, Velvetleaf [8, 21] | Pigweed plant response rating [14, 17] | Plant response rating, Lambsquarters [16, 22]
10: Plant response rating, Barnyardgrass [4, 20] | Plant response rating, Johnsongrass [9, 21] | Wheat plant response rating [15, 17]
5: Johnsongrass plant response rating [9, 17] | Johnsongrass plant response rating [9, 24] | Corn plant response rating [13, 17] | Plant response rating, Corn [13, 22]
65: Foxtail, Giant plant response rating [2, 24]
40: Foxtail, Giant plant response rating [2, 17] | Barnyardgrass plant response rating [4, 24] | Blackgrass plant response rating [6, 17] | Velvetleaf plant response rating [8, 17] | Plant response rating, Johnsongrass [9, 18] | Plant response rating, Wheat [15, 19]
25: Barnyardgrass plant response rating [4, 17] | Plant response rating, Barnyardgrass [4, 21] | Plant response rating, Velvetleaf [8, 20] | Plant response rating, Soybean [12, 18] | Corn plant response rating [13, 23]
100: Plant response rating, Waterhemp [11, 19] | Plant response rating, Pigweed [14, 21] | Plant response rating, Pigweed [14, 22]
35: Plant response rating, Nutsedge, Yellow [5, 21] | Plant response rating, Johnsongrass [9, 22] | Plant response rating, Wheat [15, 18] | Plant response rating, Wheat [15, 22]
20: Plant response rating, Corn [13, 18] | Corn plant response rating [13, 24] | Plant response rating, Wheat [15, 21]
30: Wheat plant response rating [15, 24]
0: Plant response rating, Nutsedge, Yellow [5, 20] | Plant response rating, Johnsongrass [9, 20] | Soybean plant response rating [12, 17] | Plant response rating, Soybean [12, 20] | Plant response rating, Soybean [12, 21] | Plant response rating, Soybean [12, 22] | Soybean plant response rating [12, 23] | Plant response rating, Corn [13, 20] | Plant response rating, Corn [13, 21] | Plant response rating, Wheat [15, 20]
75: Morningglory plant response rating [1, 17] | Plant response rating, Foxtail, Giant [2, 18] | Plant response rating, Ryegrass, Italian [7, 20] | Waterhemp plant response rating [11, 17] | Waterhemp plant response rating [11, 24] | Plant response rating, Lambsquarters [16, 20]
98: Ragweed plant response rating [3, 23] | Plant response rating, Galium [10, 21] | Galium plant response rating [10, 23] | Plant response rating, Pigweed [14, 19] | Pigweed plant response rating [14, 23] | Plant response rating, Lambsquarters [16, 19]
85: Plant response rating, Morningglory [1, 20] | Plant response rating, Foxtail, Giant [2, 19] | Plant response rating, Foxtail, Giant [2, 22] | Ragweed plant response rating [3, 17] | Plant response rating, Ragweed [3, 20] | Barnyardgrass plant response rating [4, 23] | Plant response rating, Blackgrass [6, 22] | Blackgrass plant response rating [6, 24] | Ryegrass, Italian plant response rating [7, 17] | Plant response rating, Velvetleaf [8, 18] | Plant response rating, Velvetleaf [8, 22] | Velvetleaf plant response rating [8, 23] | Velvetleaf plant response rating [8, 24] | Plant response rating, Waterhemp [11, 18] | Plant response rating, Waterhemp [11, 20] | Pigweed plant response rating [14, 24]
15: Soybean plant response rating [12, 24]
90: Plant response rating, Morningglory [1, 21] | Plant response rating, Morningglory [1, 22] | Morningglory plant response rating [1, 24] | Plant response rating, Ragweed [3, 18] | Plant response rating, Ragweed [3, 19] | Ragweed plant response rating [3, 24] | Plant response rating, Nutsedge, Yellow [5, 19] | Plant response rating, Blackgrass [6, 18] | Plant response rating, Blackgrass [6, 19] | Blackgrass plant response rating [6, 23] | Plant response rating, Ryegrass, Italian [7, 18] | Plant response rating, Ryegrass, Italian [7, 19] | Plant response rating, Ryegrass, Italian [7, 21] | Plant response rating, Ryegrass, Italian [7, 22] | Ryegrass, Italian plant response rating [7, 23] | Ryegrass, Italian plant response rating [7, 24] | Plant response rating, Velvetleaf [8, 19] | Galium plant response rating [10, 17] | Plant response rating, Galium [10, 20] | Galium plant response rating [10, 24] | Plant response rating, Waterhemp [11, 21] | Plant response rating, Waterhemp [11, 22] | Lambsquarters plant response rating [16, 17] | Lambsquarters plant response rating [16, 23]
70: Plant response rating, Foxtail, Giant [2, 21] | Plant response rating, Barnyardgrass [4, 22] | Plant response rating, Lambsquarters [16, 21]
45: Plant response rating, Soybean [12, 19]
50: Plant response rating, Nutsedge, Yellow [5, 22] | Plant response rating, Blackgrass [6, 20] | Plant response rating, Johnsongrass [9, 19]
55: Plant response rating, Foxtail, Giant [2, 20] | Plant response rating, Barnyardgrass [4, 18] | Johnsongrass plant response rating [9, 23]
95: Plant response rating, Morningglory [1, 18] | Plant response rating, Morningglory [1, 19] | Morningglory plant response rating [1, 23] | Foxtail, Giant plant response rating [2, 23] | Plant response rating, Ragweed [3, 21] | Plant response rating, Ragweed [3, 22] | Nutsedge, Yellow plant response rating [5, 23] | Plant response rating, Galium [10, 18] | Plant response rating, Galium [10, 19] | Plant response rating, Galium [10, 22] | Waterhemp plant response rating [11, 23] | Plant response rating, Pigweed [14, 18] | Plant response rating, Pigweed [14, 20] | Plant response rating, Lambsquarters [16, 18] | Lambsquarters plant response rating [16, 24]
60: Plant response rating, Barnyardgrass [4, 19] | Plant response rating, Corn [13, 19] | Wheat plant response rating [15, 23]
